Measurements taken from US20090274674A1, “Heterocyclic Oxime Compounds, Process for Their Preparation and Pharmaceutical Compositions Containing Them” (LES LABORATOIRES SERVIER, priority 2005, published 2009).

What was measured:
[1] = system: ob/ob mouse; assay: Antidiabetic and hypolipaemic effect in the ob/ob mouse; assay type: in vivo; conditions: male ob/ob mouse, 3 mg/kg oral once per day for four days, measured 24 hours after the final administration
Description: Mutations in laboratory animals and also different sensitivities to dietary regimens have allowed the development of animal models having non-insulin-dependent diabetes and hyperlipidaemia associated with obesity and with resistance to insulin. Genetic mice models (ob/ob) (Diabetes, 1982, 31 (1), 1-6) and Zucker (fa/fa) rats have been developed by various laboratories in order to understand the physiopathology of those diseases and test the effectiveness of new antidiabetic compounds (Diabetes, 1983, 32, 830-838).
Antidiabetic and Hypolipaemic Effect in the ob/ob Mouse
The 10-week-old male ob/ob mouse (Harlan) is used for the in vivo tests. The animals are kept in a light-darkness cycle of 12 hours at 25° C. This mouse has a basal hyperglycaemia of 2 g/l. The animals are randomly selected with regard to their glycaemia to form groups of eight. The compounds tested by the oral route are dissolved in a mixture of hydroxyethyl cellulose (HEC 1%) to be administered at 3 mg/kg in a volume of 10 ml/kg once per day for four days. The control group receives the solvents under the same conditions as the treated groups. The activity of the products is evaluated by measuring glycaemia, triglyceridaemia and insulinaemia 24 hours after the final administration and by measuring body weight daily.

melting point | Compound | reduction in glycaemia compared with the control [1] [%] | reduction in insulinaemia compared with the control group [1] [%] | reduction in triglyceridaemia compared with the control group [1] [%]
145 °C | CCOC(Cc1ccc(OCCn2ccc3cc(C(=NOC)c4ccccc4)cnc32)cc1)C(=O)OC (stereo not drawn) [Example 11, Methyl 2-ethoxy-3-[4-(2-{5-[(methoxyimino)(phenyl)methyl]-1H-pyrrolo[2,3-b]pyridin-1-yl}ethoxy)phenyl]propanoate] |  |  | 
182 °C (dec.) | CON=C(c1ccccc1)c1cnc2c(ccn2CCOc2ccc(CC(OCC(F)(F)F)C(=O)O)cc2)c1 (stereo not drawn) [Example 14, 3-[4-(2-{5-[(Methoxyimino)(phenyl)methyl]-1H-pyrrolo[2,3-b]pyridin-1-yl}ethoxy)phenyl]-2-(2,2,2-trifluoroethoxy)propanoic acid] |  |  | 
186 °C | CO/N=C(/c1ccccc1)c1cnc2c(ccn2CCOc2ccc(CC(OCC(F)(F)F)C(=O)O)cc2)c1Cl (stereo not drawn) [Example 16, 3-[4-(2-{4-Chloro-5-[(Z)-(methoxyimino)(phenyl)methyl]-1H-pyrrolo[2,3-b]pyridin-1-yl}ethoxy)phenyl]-2-(2,2,2-trifluoro-ethoxy)propanoic acid] |  |  | 
 | CON=C(c1ccccc1)c1ccc2ccn(CCOc3ccc(C[C@H](OCC(F)(F)F)C(=O)O)cc3)c2n1 [Example 32, (2S)-3-[4-(2-{6-[(Methoxyimino) (phenyl)methyl]-1H-pyrrolo[2,3-b]pyridin-1-yl}ethoxy)phenyl]-2-(2,2,2-trifluoroethoxy)propanoic acid] | 43 | 23 | 37
